# Like-named read-outs stand apart in the source and are kept apart here. Positions of bridges follow the written chain, without caps; N, C: chain ends. Non-standard residues stand in square brackets, D forms with d. Residues, ends and D or L forms follow the SMILES beside them. Orn = NCCC[C@H](N)C(=O)O
# Key:
# Experiment in all cases: cell-based
# [1] = target: hNav1.3 (Homo sapiens, UniProt Q9NY46); conditions: IonWorks Quattro, read-out: IWQ Use Nav1.3
# [2] = target: hNav1.5 (Homo sapiens, UniProt Q14524)
# [3] = target: hNav1.7 (Homo sapiens, UniProt Q15858); assay type: cell-based; conditions: IonWorks Quattro, read-out: IWQ Use Nav1.7
# Chain of hNav1.7 (Q15858 whole entry, looked up): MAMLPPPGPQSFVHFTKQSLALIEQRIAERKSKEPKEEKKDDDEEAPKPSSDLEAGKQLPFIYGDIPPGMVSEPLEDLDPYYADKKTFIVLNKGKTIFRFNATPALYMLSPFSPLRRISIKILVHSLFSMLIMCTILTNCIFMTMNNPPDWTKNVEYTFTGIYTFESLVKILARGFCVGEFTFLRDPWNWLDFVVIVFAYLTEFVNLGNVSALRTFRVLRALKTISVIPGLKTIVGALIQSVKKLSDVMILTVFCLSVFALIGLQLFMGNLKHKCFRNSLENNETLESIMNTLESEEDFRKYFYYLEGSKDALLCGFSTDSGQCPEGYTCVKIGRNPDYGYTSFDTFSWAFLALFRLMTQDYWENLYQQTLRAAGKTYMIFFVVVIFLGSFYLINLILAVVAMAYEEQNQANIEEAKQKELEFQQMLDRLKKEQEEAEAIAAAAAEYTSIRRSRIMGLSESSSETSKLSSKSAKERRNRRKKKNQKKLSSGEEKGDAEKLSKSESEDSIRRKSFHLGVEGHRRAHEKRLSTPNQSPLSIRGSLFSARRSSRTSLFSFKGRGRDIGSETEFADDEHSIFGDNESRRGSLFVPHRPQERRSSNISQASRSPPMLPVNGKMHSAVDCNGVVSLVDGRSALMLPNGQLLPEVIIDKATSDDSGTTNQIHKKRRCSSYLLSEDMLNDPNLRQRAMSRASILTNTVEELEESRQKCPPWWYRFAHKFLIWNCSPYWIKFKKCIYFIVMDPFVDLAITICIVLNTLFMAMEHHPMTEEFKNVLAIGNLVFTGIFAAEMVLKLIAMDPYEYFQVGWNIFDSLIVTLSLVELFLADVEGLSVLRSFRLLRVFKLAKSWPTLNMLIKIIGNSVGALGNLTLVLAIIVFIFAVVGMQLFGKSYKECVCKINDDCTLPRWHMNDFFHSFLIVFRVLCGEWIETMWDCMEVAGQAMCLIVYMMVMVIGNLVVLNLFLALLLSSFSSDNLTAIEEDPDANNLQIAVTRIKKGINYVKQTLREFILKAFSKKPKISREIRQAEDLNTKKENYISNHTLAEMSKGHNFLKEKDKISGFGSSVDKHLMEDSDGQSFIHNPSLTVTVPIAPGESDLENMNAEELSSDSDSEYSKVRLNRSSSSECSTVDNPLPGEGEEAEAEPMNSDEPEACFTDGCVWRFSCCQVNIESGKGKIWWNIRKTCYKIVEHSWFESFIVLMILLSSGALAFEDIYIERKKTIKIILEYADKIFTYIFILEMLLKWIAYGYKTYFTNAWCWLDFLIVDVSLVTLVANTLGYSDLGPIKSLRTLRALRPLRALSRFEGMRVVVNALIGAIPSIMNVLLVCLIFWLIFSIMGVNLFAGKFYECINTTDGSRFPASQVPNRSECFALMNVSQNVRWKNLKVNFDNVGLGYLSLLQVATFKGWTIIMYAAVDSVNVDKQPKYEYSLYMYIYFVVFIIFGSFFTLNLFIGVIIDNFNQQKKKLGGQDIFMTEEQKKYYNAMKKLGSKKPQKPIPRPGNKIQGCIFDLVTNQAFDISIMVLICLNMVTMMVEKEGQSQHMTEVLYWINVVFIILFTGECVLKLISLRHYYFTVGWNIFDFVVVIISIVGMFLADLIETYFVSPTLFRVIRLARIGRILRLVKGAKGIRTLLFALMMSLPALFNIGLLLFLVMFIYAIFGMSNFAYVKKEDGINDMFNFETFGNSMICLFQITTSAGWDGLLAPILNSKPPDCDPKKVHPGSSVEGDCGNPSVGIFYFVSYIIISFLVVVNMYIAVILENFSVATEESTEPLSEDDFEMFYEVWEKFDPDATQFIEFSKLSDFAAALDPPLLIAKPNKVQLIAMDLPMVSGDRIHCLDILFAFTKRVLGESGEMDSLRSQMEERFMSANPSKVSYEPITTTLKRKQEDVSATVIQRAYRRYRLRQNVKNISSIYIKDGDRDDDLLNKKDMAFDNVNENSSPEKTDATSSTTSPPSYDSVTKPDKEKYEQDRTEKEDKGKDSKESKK
# [4] = IonWorks Quattro, use-dependent block, hNav1.5, read-out: IWQ Use Nav1.5
# Chain of hNav1.3 (Q9NY46 whole entry, looked up): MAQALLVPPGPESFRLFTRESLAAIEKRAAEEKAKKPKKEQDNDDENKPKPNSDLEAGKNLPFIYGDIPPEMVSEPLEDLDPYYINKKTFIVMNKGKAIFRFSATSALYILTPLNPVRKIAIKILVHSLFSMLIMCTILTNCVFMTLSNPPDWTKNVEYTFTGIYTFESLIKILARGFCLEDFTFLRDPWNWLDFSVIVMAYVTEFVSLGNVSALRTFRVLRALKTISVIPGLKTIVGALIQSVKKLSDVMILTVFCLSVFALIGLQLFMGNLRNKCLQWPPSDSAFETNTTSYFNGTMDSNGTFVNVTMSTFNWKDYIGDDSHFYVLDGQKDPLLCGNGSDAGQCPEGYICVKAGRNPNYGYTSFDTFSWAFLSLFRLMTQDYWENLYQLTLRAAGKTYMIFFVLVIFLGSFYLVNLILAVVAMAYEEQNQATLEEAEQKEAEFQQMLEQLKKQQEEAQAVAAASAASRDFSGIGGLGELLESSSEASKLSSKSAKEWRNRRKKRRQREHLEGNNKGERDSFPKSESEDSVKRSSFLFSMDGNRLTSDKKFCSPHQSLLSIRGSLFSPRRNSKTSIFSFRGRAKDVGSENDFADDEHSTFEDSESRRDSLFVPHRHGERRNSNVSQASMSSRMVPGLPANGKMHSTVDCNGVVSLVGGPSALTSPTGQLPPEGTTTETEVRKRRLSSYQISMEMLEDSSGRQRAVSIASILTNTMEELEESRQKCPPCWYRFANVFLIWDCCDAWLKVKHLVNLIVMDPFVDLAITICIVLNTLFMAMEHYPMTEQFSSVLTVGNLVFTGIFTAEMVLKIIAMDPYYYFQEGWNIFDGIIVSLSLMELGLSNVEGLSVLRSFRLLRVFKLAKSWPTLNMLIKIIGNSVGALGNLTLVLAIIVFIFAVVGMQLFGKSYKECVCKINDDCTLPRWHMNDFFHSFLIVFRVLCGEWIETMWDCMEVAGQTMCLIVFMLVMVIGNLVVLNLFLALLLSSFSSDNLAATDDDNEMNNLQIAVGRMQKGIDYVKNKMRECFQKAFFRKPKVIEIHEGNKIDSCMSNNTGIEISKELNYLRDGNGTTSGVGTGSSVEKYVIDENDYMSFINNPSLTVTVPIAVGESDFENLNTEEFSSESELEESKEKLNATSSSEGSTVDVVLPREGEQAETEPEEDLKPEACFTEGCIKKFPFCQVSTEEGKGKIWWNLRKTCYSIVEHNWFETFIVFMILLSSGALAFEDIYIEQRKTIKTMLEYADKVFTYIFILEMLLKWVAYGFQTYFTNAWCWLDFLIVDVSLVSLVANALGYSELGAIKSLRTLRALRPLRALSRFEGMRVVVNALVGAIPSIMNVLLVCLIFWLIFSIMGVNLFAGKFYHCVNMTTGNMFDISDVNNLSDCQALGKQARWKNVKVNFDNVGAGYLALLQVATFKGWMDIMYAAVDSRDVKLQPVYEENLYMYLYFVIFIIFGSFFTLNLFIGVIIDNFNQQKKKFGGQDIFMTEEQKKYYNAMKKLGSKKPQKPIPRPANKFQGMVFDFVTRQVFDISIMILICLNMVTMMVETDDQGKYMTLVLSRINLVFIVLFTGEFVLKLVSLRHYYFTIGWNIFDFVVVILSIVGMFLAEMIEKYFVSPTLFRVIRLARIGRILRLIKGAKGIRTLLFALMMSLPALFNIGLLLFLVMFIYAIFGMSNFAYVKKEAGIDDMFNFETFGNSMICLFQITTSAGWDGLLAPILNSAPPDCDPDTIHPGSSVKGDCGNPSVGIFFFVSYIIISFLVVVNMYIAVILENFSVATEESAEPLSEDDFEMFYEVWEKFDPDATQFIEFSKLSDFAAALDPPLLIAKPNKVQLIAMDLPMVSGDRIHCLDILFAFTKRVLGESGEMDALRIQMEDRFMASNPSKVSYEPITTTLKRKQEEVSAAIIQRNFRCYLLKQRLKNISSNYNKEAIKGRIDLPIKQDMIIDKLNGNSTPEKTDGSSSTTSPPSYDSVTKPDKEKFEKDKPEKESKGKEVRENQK
smiles,measurement,setting,value
"CC[C@H](C)[C@@H]1NC(=O)[C@@H]2CSSC[C@@H]3NC(=O)[C@H](C(C)C)NC(=O)[C@H](CC(C)C)NC(=O)[C@H](CC(N)=O)NC(=O)[C@@H]4CCCN4C(=O)[C@H](CCCNC(=N)N)NC(=O)[C@H](CSSC[C@H](NC(=O)[C@@H](N)CC(=O)O)C(=O)N[C@@H](CC(C)C)C(=O)NCC(=O)N[C@@H](C)C(=O)NCC(=O)N[C@@H](CCCNC(=N)N)C(=O)N[C@@H](CCCCN)C(=O)N2)NC(=O)[C@H](CSSC[C@@H](C(=O)N[C@@H](CCCCN)C(=O)N[C@@H](Cc2ccc(O)cc2)C(=O)N[C@H](C(=O)N[C@@H](Cc2ccccc2)C(N)=O)C(C)C)NC(=O)[C@H](Cc2c[nH]c4ccccc24)NC(=O)[C@H](CCCCN)NC(=O)[C@H](Cc2c[nH]cn2)NC(=O)[C@H]([C@@H](C)O)NC(=O)[C@H](CCCNC(=N)N)NC(=O)[C@H](CO)NC3=O)NC(=O)[C@H](CCCCN)NC(=O)[C@H](CC(=O)O)NC(=O)[C@H](CC(N)=O)NC(=O)[C@H](CC(=O)O)NC(=O)[C@@H]2CCCN2C1=O [compound 697] (H-DCLGAGRKCIPDNDKCCRPNLVCSRTHKWCKYVF-NH2; disulfide 2-17, 9-23, 16-30)",IC50,"[1]; use-dependent protocol, hNav1.3",4.4 µM
same,IC50,"[2]; IonWorks Quattro, use-dependent protocol, hNav1.5, read-out: IWQ Use Nav1.5",> 5 µM
same,IC50,"[3]; use-dependent protocol, hNav1.7",8.1 µM
"CC[C@H](C)[C@@H]1NC(=O)[C@H](CCCNC(=N)N)NC(=O)[C@H](CO)NC(=O)[C@@H]2CSSC[C@@H]3NC(=O)[C@H](CCCCN)NC(=O)[C@H](CCCNC(=N)N)NC(=O)[C@H](CCSC)NC(=O)[C@H](Cc4ccccc4)NC(=O)CNC(=O)[C@H](CC(C)C)NC(=O)[C@@H](NC(=O)[C@@H](N)CC(=O)O)CSSC[C@H](NC(=O)[C@H](CSSC[C@@H](C(=O)N[C@@H](CCCCN)C(=O)N[C@@H](Cc4ccc(O)cc4)C(=O)N[C@H](C(=O)N[C@@H](Cc4ccccc4)C(N)=O)C(C)C)NC(=O)[C@H](Cc4c[nH]c5ccccc45)NC(=O)[C@H](CCCCN)NC(=O)[C@H](Cc4c[nH]cn4)NC1=O)NC(=O)[C@H](CCCCN)NC(=O)[C@H](CC(=O)O)NC(=O)[C@H](CC(N)=O)NC(=O)[C@H](CC(=O)O)NC(=O)[C@@H]1CCCN1C(=O)[C@H]([C@@H](C)CC)NC3=O)C(=O)N[C@@H](CCCNC(=N)N)C(=O)N1CCC[C@H]1C(=O)N[C@@H](CC(N)=O)C(=O)N[C@@H](CC(C)C)C(=O)N[C@@H](C(C)C)C(=O)N2 [compound 348] (H-DCLGFMRKCIPDNDKCCRPNLVCSRIHKWCKYVF-NH2; disulfide 2-17, 9-23, 16-30)",IC50,"[1]; Table 22, use, […]",0.03 µM
same,IC50,"[2]; Table 22, IonWorks Quattro, use, […], read-out: IWQ Use Nav1.5",8.15 µM
same,IC50,"[3]; Table 22, use, […]",0.05 µM
"CC[C@H](C)[C@@H]1NC(=O)[C@@H]2CSSC[C@@H]3NC(=O)[C@H](C(C)C)NC(=O)[C@H](CC(C)C)NC(=O)[C@H](CC(N)=O)NC(=O)[C@@H]4CCCN4C(=O)[C@H](CCCNC(=N)N)NC(=O)[C@H](CSSC[C@H](NC(=O)[C@@H](N)CC(=O)O)C(=O)N[C@@H](CC(C)C)C(=O)NCC(=O)N[C@@H](C)C(=O)N[C@@H](CC(C)C)C(=O)N[C@@H](CCCNC(=N)N)C(=O)N[C@@H](CCCCN)C(=O)N2)NC(=O)[C@H](CSSC[C@@H](C(=O)N[C@@H](CCCCN)C(=O)N[C@@H](Cc2ccc(O)cc2)C(=O)N[C@H](C(=O)N[C@@H](Cc2ccccc2)C(=O)O)C(C)C)NC(=O)[C@H](Cc2c[nH]c4ccccc24)NC(=O)[C@H](CCCNC(=N)N)NC(=O)[C@H](Cc2c[nH]cn2)NC(=O)[C@H]([C@@H](C)O)NC(=O)[C@H](CCCNC(=N)N)NC(=O)[C@H](CO)NC3=O)NC(=O)[C@H](CCCCN)NC(=O)[C@H](CC(=O)O)NC(=O)[C@H](C)NC(=O)[C@H](CC(=O)O)NC(=O)[C@@H]2CCCN2C1=O [compound 860] (H-DCLGALRKCIPDADKCCRPNLVCSRTHRWCKYVF-OH; disulfide 2-17, 9-23, 16-30)",IC50,"[1]; use-dependent block, hNav1.3",4.5 µM
same,IC50,[2]; [4],> 5 µM
same,IC50,"[3]; use-dependent block, hNav1.7",> 5 µM
"CC[C@H](C)[C@@H]1NC(=O)[C@@H]2CSSC[C@@H]3NC(=O)[C@H](C(C)C)NC(=O)[C@H](CC(C)C)NC(=O)[C@H](CC(N)=O)NC(=O)[C@@H]4CCCN4C(=O)[C@H](CCCNC(=N)N)NC(=O)[C@H](CSSC[C@H](NC(=O)[C@@H](N)CC(=O)O)C(=O)N[C@@H](CC(C)C)C(=O)NCC(=O)N[C@@H](Cc4ccccc4)C(=O)N[C@@H](CCSC)C(=O)N[C@@H](CCCNC(=N)N)C(=O)N[C@@H](CCCCN)C(=O)N2)NC(=O)[C@H](CSSC[C@@H](C(=O)N[C@@H](CCCCN)C(=O)N[C@@H](CC(C)C)C(=O)N[C@H](C(=O)N[C@@H](Cc2ccccc2)C(N)=O)C(C)C)NC(=O)[C@H](Cc2c[nH]c4ccccc24)NC(=O)[C@H](CCCCN)NC(=O)[C@H](Cc2c[nH]cn2)NC(=O)[C@H]([C@@H](C)O)NC(=O)[C@H](CCCNC(=N)N)NC(=O)[C@H](CO)NC3=O)NC(=O)[C@H](CCCCN)NC(=O)[C@H](CC(=O)O)NC(=O)[C@H](CC(N)=O)NC(=O)[C@H](CC(=O)O)NC(=O)[C@@H]2CCCN2C1=O [compound 373] (H-DCLGFMRKCIPDNDKCCRPNLVCSRTHKWCKLVF-NH2; disulfide 2-17, 9-23, 16-30)",IC50,"[1]; Table 25, use, […]",0.08 µM
same,IC50,"[2]; Table 25, IonWorks Quattro, use, […], read-out: IWQ Use Nav1.5",8.83 µM
same,IC50,"[3]; Table 25, use, […]",0.12 µM
"CC[C@H](C)[C@@H]1NC(=O)[C@@H]2CSSC[C@@H]3NC(=O)[C@H](C(C)C)NC(=O)[C@H](CC(C)C)NC(=O)[C@H](CC(N)=O)NC(=O)[C@@H]4CCCN4C(=O)[C@H](CCCNC(=N)N)NC(=O)[C@H](CSSC[C@H](NC(=O)[C@@H](N)CC(=O)O)C(=O)N[C@@H](CC(C)C)C(=O)NCC(=O)N[C@@H](C)C(=O)N[C@@H](CCSC)C(=O)N[C@@H](CCCNC(=N)N)C(=O)N[C@@H](CCCCN)C(=O)N2)NC(=O)[C@H](CSSC[C@@H](C(=O)N[C@@H](CCCCN)C(=O)N[C@@H](Cc2ccc(O)cc2)C(=O)N[C@H](C(=O)N[C@@H](Cc2ccccc2)C(N)=O)C(C)C)NC(=O)[C@H](Cc2c[nH]c4ccccc24)NC(=O)[C@H](CCCN)NC(=O)[C@H](Cc2c[nH]cn2)NC(=O)[C@H]([C@@H](C)O)NC(=O)[C@H](CCCNC(=N)N)NC(=O)[C@H](CO)NC3=O)NC(=O)[C@H](CCCCN)NC(=O)[C@H](CC(=O)O)NC(=O)[C@H](CC(N)=O)NC(=O)[C@H](CC(=O)O)NC(=O)[C@@H]2CCCN2C1=O [compound 746] (H-DCLGAMRKCIPDNDKCCRPNLVCSRTH[Orn]WCKYVF-NH2; disulfide 2-17, 9-23, 16-30)",IC50,"[1]; use-dependent block, hNav1.3",0.76 µM
same,IC50,[2]; [4],20.7 µM
same,IC50,"[3]; use-dependent block, hNav1.7",0.29 µM
"CC[C@H](C)[C@@H]1NC(=O)[C@@H]2CSSC[C@@H]3NC(=O)[C@H](C(C)C)NC(=O)[C@H](CC(C)C)NC(=O)[C@H](CC(N)=O)NC(=O)[C@@H]4CCCN4C(=O)[C@H](CCCNC(=N)N)NC(=O)[C@H](CSSC[C@H](NC(=O)[C@@H](N)CC(=O)O)C(=O)N[C@@H](CC(C)C)C(=O)NCC(=O)N[C@@H](C)C(=O)N[C@@H](Cc4ccccc4)C(=O)N[C@@H](CCCNC(=N)N)C(=O)N[C@@H](CCCCN)C(=O)N2)NC(=O)[C@H](CSSC[C@@H](C(=O)N[C@@H](CCCCN)C(=O)N[C@@H](Cc2ccc(O)cc2)C(=O)N[C@H](C(=O)N[C@@H](Cc2ccccc2)C(=O)O)C(C)C)NC(=O)[C@H](Cc2c[nH]c4ccccc24)NC(=O)[C@H](CCC(=O)O)NC(=O)[C@H](Cc2c[nH]cn2)NC(=O)[C@H]([C@@H](C)O)NC(=O)[C@H](CCCNC(=N)N)NC(=O)[C@H](CO)NC3=O)NC(=O)[C@H](CCCCN)NC(=O)[C@H](CC(=O)O)NC(=O)[C@H](CC(N)=O)NC(=O)[C@H](CC(=O)O)NC(=O)[C@@H]2CCCN2C1=O [compound 826] (H-DCLGAFRKCIPDNDKCCRPNLVCSRTHEWCKYVF-OH; disulfide 2-17, 9-23, 16-30)",IC50,"[1]; use-dependent block, hNav1.3",1.8 µM
same,IC50,[2]; [4],> 5 µM
same,IC50,"[3]; use-dependent block, hNav1.7",> 5 µM
"CC[C@H](C)[C@@H]1NC(=O)[C@@H]2CSSC[C@@H]3NC(=O)[C@H](C(C)C)NC(=O)[C@H](CC(C)C)NC(=O)[C@H](CC(N)=O)NC(=O)[C@@H]4CCCN4C(=O)[C@H](CCCNC(=N)N)NC(=O)[C@H](CSSC[C@H](NC(=O)[C@@H](N)CC(=O)O)C(=O)N[C@@H](CC(C)C)C(=O)NCC(=O)N[C@@H](Cc4ccccc4)C(=O)N[C@@H](CCSC)C(=O)N[C@@H](CCCNC(=N)N)C(=O)N[C@@H](CCCCN)C(=O)N2)NC(=O)[C@H](CSSC[C@@H](C(=O)N[C@@H](CCCCN)C(=O)N[C@@H](Cc2ccc(O)cc2)C(=O)NCC(=O)N[C@@H](Cc2ccccc2)C(N)=O)NC(=O)[C@H](Cc2c[nH]c4ccccc24)NC(=O)[C@H](CCCCN)NC(=O)[C@H](Cc2c[nH]cn2)NC(=O)[C@H]([C@@H](C)O)NC(=O)[C@H](CCCNC(=N)N)NC(=O)[C@H](CO)NC3=O)NC(=O)[C@H](CCCCN)NC(=O)[C@H](CC(=O)O)NC(=O)[C@H](CC(N)=O)NC(=O)[C@H](CC(=O)O)NC(=O)[C@@H]2CCCN2C1=O [compound 401] (H-DCLGFMRKCIPDNDKCCRPNLVCSRTHKWCKYGF-NH2; disulfide 2-17, 9-23, 16-30)",IC50,"[1]; Table 26, use, […]",0.04 µM
same,IC50,[2]; IWQ Use Nav1.5 (μM),> 5 µM
same,IC50,"[3]; Table 26, use, […]",0.29 µM

# Source: patent US9340590B2 (priority 2011, dated 2016)
